Consider 15 compounds from article PMC8541144, “Synthesis, Characterization and In Vitro Evaluation of Hybrid Monomeric Peptides Suited for Multimodal Imaging by PET/OI: Extending the Concept of Charge—Cell Binding Correlation” (Pharmaceuticals, 2021).

For orientation: logD means lipophilicity at a set pH, counting ionised and neutral species.

On the set-up of data set [1]: method as in PMID 32618007, PMID 32948032. The note with it: ref [20],[21], cited from earlier work.
Details of data set [2]: method as in PMID 32618007, PMID 32948032. The conditions noted are these: MIUs; mean ± SD; ref [20],[21]; cited from earlier work.
Data set [3] is described as follows: LogD determination: partition between 1-octanol and phosphate buffer pH 7.4. How it is done:
In the following, the lipophilicity of the labeled conjugates was investigated to get a first idea of the potential excretion pathway of the agents during an in vivo application. The logD values were determined by partition experiments between n-octanol and aqueous solution at pH 7.4.
The mixtures were intensively shaken for 5 min on a vibrating plate. After subsequent centrifugation at 13,000 rpm for 5 min, 125 µL were taken from each phase and measured in a γ-counter. The logD values were calculated from three or four independent experiments, each performed in triplicate.

Each structure is given as a SMILES string. Where two headings read alike, the source gives them in different places.

Turning to `CC1(C)C(/C=C/C2=C(c3ccc(C(=O)NCCCC[C@H](NC(=O)CC[C@H](C(=O)O)N4CCN(CC(=O)O)CCN(CC(=O)O)CC4)C(=O)N[C@@H](CS)C(N)=O)cc3)C(=C/C=C3/N(CCCCS(=O)(=O)[O-])c4ccc5ccccc5c4C3(C)C)/CCC2)=[N+](CCCCS(=O)(=O)O)c2ccc3ccccc3c21` [Compound 9, thio-cyanine-NODA-GA], in data set [1] (MIU, λex = 650 nm), the “Stokes Shift” value was 10 nm and the “λmax(em)” value is 800 nm. For the same compound, in data set [1] (MIUs), the “λmax(abs)” value was 720/790. In addition, the logD in data set [2] was −1.29 ± 0.11.
`CC1(C)C(/C=C/C2=C(c3ccc(C(=O)NCCCC[C@H](NC(=O)CC[C@H](C(=O)O)N4CCN(CC(=O)O)CCN(CC(=O)O)CC4)C(=O)N[C@@H](CSC4CC(=O)N(CCCC(=O)NCCOCCOCCOCCOCCC(=O)NCCCC[C@@H]5NC(=O)[C@@H](Cc6ccccc6)NC(=O)[C@H](CC(=O)O)NC(=O)CNC(=O)[C@H](CCCNC(=N)N)NC5=O)C4=O)C(N)=O)cc3)C(=C/C=C3/N(CCCCS(=O)(=O)[O-])c4ccc5ccccc5c4C3(C)C)/CCC2)=[N+](CCCCS(=O)(=O)O)c2ccc3ccccc3c21` (some centres unmarked) [9 c, c(RGDfK)-cyanine-NODA-GA] returned a logD in data set [3] of -1.97 ± 0.18.
Same read-out and setting: the figure for `CCCC[C@H](NC(=O)CCOCCOCCOCCOCCNC(=O)CCCN1C(=O)CC(SC[C@H](NC(=O)[C@H](CCCC[n+]2c(C)cc(/C=C/c3ccc(N(C)C)cc3)cc2C)NC(=O)CC[C@H](C(=O)O)N2CCN(CC(=O)O)CCN(CC(=O)O)CC2)C(N)=O)C1=O)C(=O)N[C@H]1CC(=O)NCCCC[C@@H](C(N)=O)NC(=O)[C@H](Cc2c[nH]c3ccccc23)NC(=O)[C@H](CCCNC(=N)N)NC(=O)[C@@H](Cc2ccccc2)NC(=O)[C@H](Cc2c[nH]cn2)NC1=O` (some centres unmarked) [7 b, Nle-c(DHfRWK)-pyrylium-NODA-GA] is -2.03 ± 0.06.
On the same count and under the same terms, the figure for `CCCC[C@H](NC(=O)CCOCCOCCOCCOCCNC(=O)CCCN1C(=O)CC(SC[C@H](NC(=O)[C@H](CCCCNC(=O)c2ccc(C3=C(/C=C/C4=[N+](CCCCS(=O)(=O)O)c5ccc6ccccc6c5C4(C)C)CCC/C3=C\C=C3\N(CCCCS(=O)(=O)[O-])c4ccc5ccccc5c4C3(C)C)cc2)NC(=O)CC[C@H](C(=O)O)N2CCN(CC(=O)O)CCN(CC(=O)O)CC2)C(N)=O)C1=O)C(=O)N[C@H]1CC(=O)NCCCC[C@@H](C(N)=O)NC(=O)[C@H](Cc2c[nH]c3ccccc23)NC(=O)[C@H](CCCNC(=N)N)NC(=O)[C@@H](Cc2ccccc2)NC(=O)[C@H](Cc2c[nH]cn2)NC1=O` (some centres unmarked) [9 b, Nle-c(DHfRWK)-cyanine-NODA-GA] is -1.42 ± 0.13; for `CCCC[C@H](NC(=O)CCOCCOCCOCCOCCNC(=O)CCCN1C(=O)CC(SC[C@H](NC(=O)CNC(=O)CC[C@H](C(=O)O)N2CCN(CC(=O)O)CCN(CC(=O)O)CC2)C(N)=O)C1=O)C(=O)N[C@H]1CC(=O)NCCCC[C@@H](C(N)=O)NC(=O)[C@H](Cc2c[nH]c3ccccc23)NC(=O)[C@H](CCCNC(=N)N)NC(=O)[C@@H](Cc2ccccc2)NC(=O)[C@H](Cc2c[nH]cn2)NC1=O` (some centres unmarked) [[^68Ga]Ga-10 b, metal not drawn] it is -3.36 ± 0.02; for `CN(C)c1cccc2c(S(=O)(=O)NCCCC[C@H](NC(=O)CC[C@H](C(=O)O)N3CCN(CC(=O)O)CCN(CC(=O)O)CC3)C(=O)N[C@@H](CSC3CC(=O)N(CCCC(=O)NCCOCCOCCOCCOCCC(=O)NCCCC[C@@H]4NC(=O)[C@@H](Cc5ccccc5)NC(=O)[C@H](CC(=O)O)NC(=O)CNC(=O)[C@H](CCCNC(=N)N)NC4=O)C3=O)C(N)=O)cccc12` (some centres unmarked) [8 c, c(RGDfK)-dansyl-NODA-GA] it is -2.17 ± 0.14.
Still for that read-out and setting: the figure for `N=C(N)NCCC[C@@H]1NC(=O)[C@H](CCCCNC(=O)CCOCCOCCOCCOCCNC(=O)CCCN2C(=O)CC(SC[C@H](NC(=O)CNC(=O)CC[C@H](C(=O)O)N3CCN(CC(=O)O)CCN(CC(=O)O)CC3)C(N)=O)C2=O)NC(=O)[C@@H](Cc2ccccc2)NC(=O)[C@H](CC(=O)O)NC(=O)CNC1=O` (some centres unmarked) [10 c, c(RGDfK)-NODA-GA] is -4.06 ± 0.1.
Turning to `CSCC[C@H](NC(=O)[C@H](CC(C)C)NC(=O)[C@H](Cc1c[nH]cn1)NC(=O)CNC(=O)[C@@H](NC(=O)[C@H](C)NC(=O)[C@H](Cc1c[nH]c2ccccc12)NC(=O)[C@H](CCC(N)=O)NC(=O)CCOCCOCCOCCOCCNC(=O)CCCN1C(=O)CC(SC[C@H](NC(=O)[C@H](CCCCNS(=O)(=O)c2cccc3c(N(C)C)cccc23)NC(=O)CC[C@H](C(=O)O)N2CCN(CC(=O)O)CCN(CC(=O)O)CC2)C(N)=O)C1=O)C(C)C)C(N)=O` (some centres unmarked) [8 a, BBN7-14-dansyl-NODA-GA], the logD in data set [3] was -1.44 ± 0.01.
As for `CSCC[C@H](NC(=O)[C@H](CC(C)C)NC(=O)[C@H](Cc1c[nH]cn1)NC(=O)CNC(=O)[C@@H](NC(=O)[C@H](C)NC(=O)[C@H](Cc1c[nH]c2ccccc12)NC(=O)[C@H](CCC(N)=O)NC(=O)CCOCCOCCOCCOCCNC(=O)CCCN1C(=O)CC(SC[C@H](NC(=O)[C@H](CCCC[n+]2c(C)cc(/C=C/c3ccc(N(C)C)cc3)cc2C)NC(=O)CC[C@H](C(=O)O)N2CCN(CC(=O)O)CCN(CC(=O)O)CC2)C(N)=O)C1=O)C(C)C)C(N)=O` (some centres unmarked) [7 a, BBN7-14-pyrylium-NODA-GA], the logD in data set [3] was -2.38 ± 0.02.
In turn, `CCCC[C@H](NC(=O)CCOCCOCCOCCOCCNC(=O)CCCN1C(=O)CC(SC[C@H](NC(=O)[C@H](CCCCNS(=O)(=O)c2cccc3c(N(C)C)cccc23)NC(=O)CC[C@H](C(=O)O)N2CCN(CC(=O)O)CCN(CC(=O)O)CC2)C(N)=O)C1=O)C(=O)N[C@H]1CC(=O)NCCCC[C@@H](C(N)=O)NC(=O)[C@H](Cc2c[nH]c3ccccc23)NC(=O)[C@H](CCCNC(=N)N)NC(=O)[C@@H](Cc2ccccc2)NC(=O)[C@H](Cc2c[nH]cn2)NC1=O` (some centres unmarked) [8 b, Nle-c(DHfRWK)-dansyl-NODA-GA] came in with a logD in data set [3] of -1.66 ± 0.03.
Consider `NC(=O)[C@H](CS)NC(=O)CNC(=O)CC[C@H](C(=O)O)N1CCN(CC(=O)O)CCN(CC(=O)O)CC1` [Compound 10, thio-NODA-GA], for which, in data set [2], the logD is listed as −3.35 ± 0.15.
For the compound `CN(C)c1cccc2c(S(=O)(=O)NCCCC[C@H](NC(=O)CC[C@H](C(=O)O)N3CCN(CC(=O)O)CCN(CC(=O)O)CC3)C(=O)N[C@@H](CS)C(N)=O)cccc12` [Compound 8, thio-dansyl-NODA-GA], in data set [1] (MIUs, λex = 400 nm), the “λmax(em)” value was 550 nm. In addition, in data set [2], the logD is −1.39 ± 0.04.
As for `Cc1cc(/C=C/c2ccc(N(C)C)cc2)cc(C)[n+]1CCCC[C@H](NC(=O)CC[C@H](C(=O)O)N1CCN(CC(=O)O)CCN(CC(=O)O)CC1)C(=O)N[C@@H](CS)C(N)=O` [Compound 7], the “Stokes Shift” value in data set [1] (MIU, λex = 400 nm) is recorded as 160 nm. Besides, in data set [1] (MIUs), the “log ε” value is on record as 4.16 M^−1cm^−1 and the “λmax(abs)” value is 440 nm. Besides, in data set [1] (MIUs, λex = 400 nm), the “λmax(em)” value is 600 nm. Moreover, in data set [2], the logD was −2.04 ± 0.11.
For the compound `Cc1cc(/C=C/c2ccc(N(C)C)cc2)cc(C)[n+]1CCCC[C@H](NC(=O)CC[C@H](C(=O)O)N1CCN(CC(=O)O)CCN(CC(=O)O)CC1)C(=O)N[C@@H](CSC1CC(=O)N(CCCC(=O)NCCOCCOCCOCCOCCC(=O)NCCCC[C@@H]2NC(=O)[C@@H](Cc3ccccc3)NC(=O)[C@H](CC(=O)O)NC(=O)CNC(=O)[C@H](CCCNC(=N)N)NC2=O)C1=O)C(N)=O` (some centres unmarked) [7 c, c(RGDfK)-pyrylium-NODA-GA], the logD in data set [3] is -2.51 ± 0.09.
On the same count and under the same terms, the result for `CSCC[C@H](NC(=O)[C@H](CC(C)C)NC(=O)[C@H](Cc1c[nH]cn1)NC(=O)CNC(=O)[C@@H](NC(=O)[C@H](C)NC(=O)[C@H](Cc1c[nH]c2ccccc12)NC(=O)[C@H](CCC(N)=O)NC(=O)CCOCCOCCOCCOCCNC(=O)CCCN1C(=O)CC(SC[C@H](NC(=O)CNC(=O)CC[C@H](C(=O)O)N2CCN(CC(=O)O)CCN(CC(=O)O)CC2)C(N)=O)C1=O)C(C)C)C(N)=O` (some centres unmarked) [[^68Ga]Ga-10 a, metal not drawn] reads -3.78 ± 0.04.
